# ChEMBL document CHEMBL1201862, “PubChem BioAssay data set” (2004)
# Calls of active or inactive are those of the source.
# Tests used:
# [1] = molecular target: ADP-ribosylation factor GTPase-activating protein 1 (Rattus norvegicus, UniProt Q62848); assay: Fluorescence polarization-based biochemical high throughput dose response screening assay to identify inhibitors of ADP-ribosylation factor GTPase activating protein 1 (ARFGAP1).; assay type: functional
# [2] = molecular target: Arf-GAP with SH3 domain, ANK repeat and PH domain-containing protein 1 (Homo sapiens, UniProt Q9ULH1); assay type: functional;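 also: biochemical fluorescence polarization dose–response screen measuring inhibition of ASAP1; ASAP1 GAP domain stimulating GTP hydrolysis by truncated human ARF1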
# Chain of Arf-GAP with SH3 domain, ANK repeat and PH domain-containing protein 1 (Q9ULH1 whole entry, the tested form may be a part): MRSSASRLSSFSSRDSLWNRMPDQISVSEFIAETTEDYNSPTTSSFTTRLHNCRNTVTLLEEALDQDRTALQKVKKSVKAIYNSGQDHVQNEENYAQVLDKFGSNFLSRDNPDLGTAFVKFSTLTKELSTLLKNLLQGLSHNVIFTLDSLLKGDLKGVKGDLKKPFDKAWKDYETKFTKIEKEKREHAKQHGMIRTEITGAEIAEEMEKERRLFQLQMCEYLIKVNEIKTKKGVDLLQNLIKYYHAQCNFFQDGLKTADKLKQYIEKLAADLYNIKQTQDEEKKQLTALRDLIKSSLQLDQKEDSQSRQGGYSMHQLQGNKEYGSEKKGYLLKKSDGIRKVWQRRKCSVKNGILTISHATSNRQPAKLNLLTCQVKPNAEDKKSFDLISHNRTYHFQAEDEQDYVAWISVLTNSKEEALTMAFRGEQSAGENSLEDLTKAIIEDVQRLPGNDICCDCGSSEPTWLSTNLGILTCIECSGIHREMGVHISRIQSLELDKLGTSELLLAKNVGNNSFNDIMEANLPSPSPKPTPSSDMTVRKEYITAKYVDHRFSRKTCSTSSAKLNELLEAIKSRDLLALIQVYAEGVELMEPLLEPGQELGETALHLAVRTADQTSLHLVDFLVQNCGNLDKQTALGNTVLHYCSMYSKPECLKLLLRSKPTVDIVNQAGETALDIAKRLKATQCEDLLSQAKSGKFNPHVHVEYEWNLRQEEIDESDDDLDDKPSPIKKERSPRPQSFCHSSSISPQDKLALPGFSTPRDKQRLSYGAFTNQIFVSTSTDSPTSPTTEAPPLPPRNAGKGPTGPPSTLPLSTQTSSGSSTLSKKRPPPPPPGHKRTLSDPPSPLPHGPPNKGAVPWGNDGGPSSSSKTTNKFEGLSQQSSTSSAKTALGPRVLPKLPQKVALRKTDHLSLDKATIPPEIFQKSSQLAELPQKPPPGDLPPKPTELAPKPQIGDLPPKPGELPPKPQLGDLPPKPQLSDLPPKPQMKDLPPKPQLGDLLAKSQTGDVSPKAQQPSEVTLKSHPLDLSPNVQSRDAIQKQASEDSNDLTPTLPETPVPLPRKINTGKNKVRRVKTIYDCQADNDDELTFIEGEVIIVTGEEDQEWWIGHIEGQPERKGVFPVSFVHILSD
# cells [3] = assay type: functional, cell-based
# cells [4] = assay type: functional, cell-based; remark: listed apart in the source
# Prothrombin = Prothrombin (Bos taurus, UniProt P00735); assay: thrombin protease inhibitors – biochemical, fluorescence polarization, uHTS hits, dose response (AID 602369); assay type: functional
# [5] = molecular target: 26S proteasome non-ATPase regulatory subunit 14 (Homo sapiens, UniProt O00487); assay: inhibition of proteasome subunit RPN11 – biochemical, fluorescence polarization, uHTS hits, confirmation (AID 602368); assay type: functional
# Chain of 26S proteasome non-ATPase regulatory subunit 14 (O00487 whole entry): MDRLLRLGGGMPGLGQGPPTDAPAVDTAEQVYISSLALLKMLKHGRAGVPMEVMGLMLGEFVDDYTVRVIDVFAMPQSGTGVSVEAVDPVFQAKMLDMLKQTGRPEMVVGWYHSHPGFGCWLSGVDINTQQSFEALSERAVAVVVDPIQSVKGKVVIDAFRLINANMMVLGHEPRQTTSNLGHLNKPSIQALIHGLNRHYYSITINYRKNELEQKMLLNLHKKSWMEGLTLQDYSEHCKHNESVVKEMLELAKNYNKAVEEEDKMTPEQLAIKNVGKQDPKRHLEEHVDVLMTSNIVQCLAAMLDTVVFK
# [6] = viability of HCT116 lacking mutant beta-catenin – cell-based, human colon tumor, dose response (AID 1045); assay type: functional;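 also: HCT116 colon tumor cells with beta catenin knocked out; cells exposed to compound for 60 hours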
# [7] = viability of PTEN-deleted HCT116 cells – cell-based, HCT116 PTEN knockout, dose response (AID 1047); assay type: functional;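 also: HCT116 colon tumor cells with PTEN knocked out; cells exposed to compound for 60 hours before readout; potency for loss of cell viability measured by luminescence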
# [8] = molecular target: 72 kDa type IV collagenase (Homo sapiens, UniProt P08253); assay: Dose Response validation of uHTS RPN11 inhibitor hits using a MMP-2 Fluorescence assay.; assay type: functional
# Chain of 72 kDa type IV collagenase (P08253 whole entry): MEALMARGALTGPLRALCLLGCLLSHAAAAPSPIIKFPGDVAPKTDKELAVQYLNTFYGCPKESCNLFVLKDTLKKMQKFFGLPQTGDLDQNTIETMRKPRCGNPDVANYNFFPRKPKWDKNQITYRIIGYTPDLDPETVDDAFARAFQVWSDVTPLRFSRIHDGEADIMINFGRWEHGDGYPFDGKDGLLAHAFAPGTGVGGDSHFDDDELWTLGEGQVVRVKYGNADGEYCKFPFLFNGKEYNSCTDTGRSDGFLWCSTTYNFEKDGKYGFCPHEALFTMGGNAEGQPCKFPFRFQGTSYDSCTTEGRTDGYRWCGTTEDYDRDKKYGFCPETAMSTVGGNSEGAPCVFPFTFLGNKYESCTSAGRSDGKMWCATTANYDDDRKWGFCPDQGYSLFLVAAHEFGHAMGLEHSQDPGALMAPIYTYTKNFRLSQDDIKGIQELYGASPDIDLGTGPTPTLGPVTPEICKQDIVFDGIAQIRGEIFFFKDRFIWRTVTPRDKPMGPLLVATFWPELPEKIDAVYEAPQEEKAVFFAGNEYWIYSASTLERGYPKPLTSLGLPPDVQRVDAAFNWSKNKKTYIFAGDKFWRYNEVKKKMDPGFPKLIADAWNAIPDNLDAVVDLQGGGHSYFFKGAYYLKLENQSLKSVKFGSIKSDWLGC
# [9] = NIH3T3 cell viability loss – ATP luminescence, mouse fibroblasts, counter-screen, dose response (AID 2010); assay type: functional, cell-based;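 also: cells exposed to compound for about 90 hours before reading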
# [10] = molecular target: T1, Methionyl-tRNA synthetase, putative (Trypanosoma brucei brucei, UniProt Q38C91); assay type: functional, Trypanosoma brucei brucei strain 927/4 GUTat10.1
# T1 sequence (Q38C91 whole entry): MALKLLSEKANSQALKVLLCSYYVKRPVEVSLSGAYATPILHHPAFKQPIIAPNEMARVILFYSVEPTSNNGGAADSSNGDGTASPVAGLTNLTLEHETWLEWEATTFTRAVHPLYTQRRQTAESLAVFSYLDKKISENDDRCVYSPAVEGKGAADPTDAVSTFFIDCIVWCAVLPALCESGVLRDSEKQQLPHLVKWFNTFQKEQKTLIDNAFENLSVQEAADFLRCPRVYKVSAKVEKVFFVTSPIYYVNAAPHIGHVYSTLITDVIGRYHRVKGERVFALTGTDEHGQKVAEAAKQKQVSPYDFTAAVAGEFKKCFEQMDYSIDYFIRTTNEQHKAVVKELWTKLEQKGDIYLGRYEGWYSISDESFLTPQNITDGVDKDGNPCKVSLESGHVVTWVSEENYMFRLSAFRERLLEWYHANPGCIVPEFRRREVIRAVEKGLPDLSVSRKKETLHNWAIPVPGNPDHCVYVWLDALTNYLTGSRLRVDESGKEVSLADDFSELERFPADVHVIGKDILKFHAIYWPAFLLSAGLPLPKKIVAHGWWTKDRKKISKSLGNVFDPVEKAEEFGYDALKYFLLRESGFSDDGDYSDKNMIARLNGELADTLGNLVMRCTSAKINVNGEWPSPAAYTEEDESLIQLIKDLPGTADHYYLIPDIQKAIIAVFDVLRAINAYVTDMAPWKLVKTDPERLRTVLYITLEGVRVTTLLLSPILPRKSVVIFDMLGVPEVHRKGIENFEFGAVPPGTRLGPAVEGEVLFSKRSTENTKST
# HEK293 [11] = assay: NOD2 signaling inhibitors in MDP-stimulated cells, cell-based, uHTS, luminescence (AID 2001); assay type: functional; conditions: Homo sapiens
# [12] = molecular target: T1, Methionyl-tRNA synthetase, putative; assay type: functional, Trypanosoma brucei brucei strain 927/4 GUTat10.1; remark: listed apart in the source
# HEK293 [13] = assay: inhibition of NOD1-driven NF-kB reporter – cell-based, luminescence, uHTS, primary screen (AID 1578); assay type: functional; conditions: Homo sapiens
# [14] = Counterscreen for inhibitors of Trypanosoma brucei methionyl tRNA synthetase (MetRS): Luminescence-based cell-based high throughput dose response assay to identify compounds that are cytotoxic to Jurkat human T lymphocyte cells.; assay type: functional
# HEK293 [15] = assay: cells; assay type: functional, cell-based; conditions: Homo sapiens
# [16] = Trypanosoma cruzi growth suppression in host cells – NIH3T3 host cells, beta-gal luminescence, confirmation (AID 2044); assay type: functional, cell-based;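 also: intracellular parasites grown in NIH/3T3 mouse fibroblasts as host cells; luminescent beta-galactosidase reporter signal from transgenic T. cruzi replicating inside host cells; inhibitors lower the luminescence signal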
# HEK293 [17] = assay: cells; assay type: functional, cell-based; conditions: Homo sapiens; remark: listed apart in the source
# [18] = molecular target: Nuclear receptor subfamily 5 group A member 2 (Homo sapiens, UniProt O00482); assay type: functional, cell-based;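 also: HEK293T cells transfected with LRH-1 and a StAR promoter luciferase reporter; potency for inhibitors that lower LRH-1 driven reporter light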
# Chain of Nuclear receptor subfamily 5 group A member 2 (O00482 whole entry): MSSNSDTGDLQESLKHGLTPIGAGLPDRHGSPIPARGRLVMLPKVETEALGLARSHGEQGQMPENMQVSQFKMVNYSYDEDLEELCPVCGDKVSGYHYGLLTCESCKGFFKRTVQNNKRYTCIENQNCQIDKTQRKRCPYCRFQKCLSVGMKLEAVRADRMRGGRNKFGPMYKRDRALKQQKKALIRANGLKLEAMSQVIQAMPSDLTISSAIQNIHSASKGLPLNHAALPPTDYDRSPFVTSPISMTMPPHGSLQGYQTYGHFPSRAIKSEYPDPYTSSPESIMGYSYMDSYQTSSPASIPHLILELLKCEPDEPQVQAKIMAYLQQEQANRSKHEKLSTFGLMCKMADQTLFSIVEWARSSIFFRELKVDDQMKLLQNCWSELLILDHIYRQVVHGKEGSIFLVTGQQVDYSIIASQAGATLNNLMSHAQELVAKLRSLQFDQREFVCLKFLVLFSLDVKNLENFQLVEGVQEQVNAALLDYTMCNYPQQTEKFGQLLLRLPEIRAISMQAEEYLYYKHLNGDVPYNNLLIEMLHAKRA
# [19] = nonselective StAR promoter luciferase inhibitors – cell-based, luminescence, luciferase reporter, counter-screen for LRH-1 inverse agonist project, dose response (AID 651969); assay type: functional
# Steroidogenic factor 1 = Steroidogenic factor 1 (Homo sapiens, UniProt Q13285); assay: Counterscreen for inverse agonists of the liver receptor homolog-1 (LRH-1; NR5A2): Luminescence-based cell-based high throughput dose response assay to identify inverse agonists of the Steroidogenic Factor 1 Nuclear Receptor (SF1; NR5A1).; assay type: functional
# Chain of Steroidogenic factor 1 (Q13285 whole entry): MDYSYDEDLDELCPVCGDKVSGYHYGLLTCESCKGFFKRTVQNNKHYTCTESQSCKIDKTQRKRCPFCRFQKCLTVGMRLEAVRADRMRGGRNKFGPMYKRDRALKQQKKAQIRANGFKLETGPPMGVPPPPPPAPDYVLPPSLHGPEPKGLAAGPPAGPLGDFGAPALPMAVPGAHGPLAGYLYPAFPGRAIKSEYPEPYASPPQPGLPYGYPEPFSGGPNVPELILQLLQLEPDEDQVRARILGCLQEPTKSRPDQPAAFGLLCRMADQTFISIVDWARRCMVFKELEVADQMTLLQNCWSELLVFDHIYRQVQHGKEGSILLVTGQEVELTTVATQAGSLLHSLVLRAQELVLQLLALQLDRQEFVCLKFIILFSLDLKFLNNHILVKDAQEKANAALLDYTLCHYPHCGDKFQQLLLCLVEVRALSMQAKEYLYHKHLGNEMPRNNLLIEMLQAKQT
# Chain of ADP-ribosylation factor GTPase-activating protein 1 (Q62848 whole entry, the tested form may be a part): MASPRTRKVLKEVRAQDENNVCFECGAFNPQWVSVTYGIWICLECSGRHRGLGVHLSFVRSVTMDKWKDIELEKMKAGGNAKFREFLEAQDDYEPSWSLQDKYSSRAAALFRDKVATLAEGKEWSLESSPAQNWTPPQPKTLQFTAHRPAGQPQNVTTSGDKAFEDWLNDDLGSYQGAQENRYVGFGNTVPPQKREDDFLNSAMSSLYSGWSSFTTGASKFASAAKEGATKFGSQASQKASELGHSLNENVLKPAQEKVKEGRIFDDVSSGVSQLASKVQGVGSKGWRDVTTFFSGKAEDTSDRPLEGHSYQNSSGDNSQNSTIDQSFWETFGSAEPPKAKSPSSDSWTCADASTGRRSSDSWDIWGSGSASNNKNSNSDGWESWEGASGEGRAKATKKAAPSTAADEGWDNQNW
Structure (SMILES),IC50 [1],IC50 [2],IC50 [10],IC50 [12],IC50 [14],IC50 [18],IC50 [19],IC50 (Steroidogenic factor 1),further results
Cc1ccc2nc(SCC(=O)N3CCCCCC3)nc(=O)n2c1,23.1 µM (inactive),30.7 µM (inactive),,,,,,,EC50 (cells [3]): > 350 µM (not active); EC50 (cells [4]): > 350 µM (not active)
Nc1nc(SCc2ccc(Cl)cc2Cl)nc2nc3c(cc12)CCCC3,23.8 µM (inactive),17.7 µM (inactive),,,,,,,IC50 (Prothrombin): 39.2 µM (active); IC50 [5]: 41.4 µM (active); EC50 [6]: 13.3 µM (active); EC50 [7]: 14.4 µM (active); IC50 [8]: > 100 µM (inactive)
COc1ccccc1NS(=O)(=O)c1cccc(NC(=O)Nc2ccc(Cl)cc2)c1,,,5.53 µM (active),39.5 µM (inactive),65.3 µM (inactive),,,,EC50 [9]: > 60 µM (not active); IC50 (HEK293 [11]): 5.81 µM (inactive); EC50 (HEK293 [13]): > 20 µM (inactive); IC50 (HEK293 [15]): 6.59 µM (active); EC50 [16]: 1.8 µM (active); IC50 (HEK293 [17]): 7.01 µM (active)
COc1ccc(CC(NC(C)=O)C(=O)NC2CCN(c3nnnn3-c3ccccc3)CC2)cc1 (centres undefined),,,,,,16.5 µM (inactive),35.9 µM (inactive),11.3 µM (inactive),
N#Cc1ccc(CSc2nnc(Nc3ccccc3)s2)cc1,,,7.66 µM (active),119 µM (inactive),83.3 µM (inactive),,,,
O=C(CSc1nc(=O)n2cc(Cl)ccc2n1)Nc1ccc2c(c1)OCCO2,,,,,,35.9 µM (inactive),35.9 µM (inactive),35.9 µM (inactive),
